# Source: publication PMC7305224, “Mutually stabilizing interactions between proto-peptides and RNA” (Nature Communications, 2020)
# Columns and labels:
# [1] = tested on: single-stranded 10mer RNA (5′-rCrGrArUrUrUrArGrCrG-3′); experiment: Depsipeptide hydrolysis assay with single-stranded RNA; format: physicochemical; conditions: 25 μM depsipeptide, single-stranded 10mer RNA 100 µM, 37 °C, pH 7.3 buffer, HPLC
# Protocol: (§1) To determine the extent of depsipeptide hydrolysis, the depsipeptide (25 μM) was incubated at 37 °C in buffer (100 mM HEPES, 10 mM NaCl, pH 7.3) in the presence or absence of 10mer RNA duplex 1 (5′-rCrGrArUrUrUrArGrCrG-3′ and 3′-rGrCrUrArArArUrCrGrC-5′) at various concentrations, or with single-stranded RNA (5′-rCrGrArUrUrUrArGrCrG-3′, 100 μM), for up to 100 h. Prior to adding depsipeptide to the reaction from its stock solution, the RNA was annealed by heating to 75 °C for 5 min, and then slowly cooling to room temperature. Reaction aliquots were quenched using 3% TFA and frozen or immediately analyzed by HPLC (270 nm). The relative concentrations of intact and hydrolyzed depsipeptide were quantified by integrating the corresponding peaks in HPLC traces. The kinetic profiles of depsipeptide hydrolysis were fit using SimFit-32 (provided by G. von Kiedrowski) according to the reaction scheme shown in Fig. 5a.
# [2] = tested on: RNA duplex 1; experiment: Depsipeptide hydrolysis assay with or without RNA duplex 1, SimFit modelling; format: physicochemical
# Source text: Fig. 5 RNA increases the hydrolytic lifetime of a cationic depsipeptide. a A schematic of depsipeptide-RNA interactions leading to increased depsipeptide lifetimes. The free depsipeptide is hydrolyzed with a pseudo-first rate constant, khyd-free. Binding of the depsipeptide to RNA is governed at equilibrium by kassoc/kdissoc. The pseudo-first rate constant for of depsipeptide hydrolysis within the depsipeptide–RNA complex is khyd-complex. Under conditions where complex formation is favorable and khyd-complex < khyd-free, the presence of RNA will increase the depsipeptide lifetime. b HPLC traces (270 nm) showing hydrolysis of depsipeptide 9 (25 μM) at various time points in the presence or absence of RNA duplex 1 at 37 °C in pH 7.3 buffer. The C-terminal fragment of the hydrolyzed depsipeptide is not observed because it lacks the Aba chromophore. (c) Time courses for hydrolysis of depsipeptide 9 (25 μM) with varying concentrations of the RNA duplex 1. The curves shown are from simultaneous fits of data to the model given in panel a using SimFit[44]. During fitting, we fixed kassoc = 1 × 10^5 M^−1 s^−1. Therefore, three rate constants were fit, with values obtained by the fitting of: khyd-free = 1.1 × 10^−4 s^−1, khyd-complex = 3.2 × 10^−6 s^−1, and kdissoc = 8.3 × 10^−3 s^−1. d Kinetic profile of the hydrolysis reaction of depsipeptide 9 (25 μM) in the presence of 7 μM RNA duplex 1. […] The extent of depsipeptide hydrolysis and RNA hybridization were then measured. Data are shown as a scatter plot of two independently repeated experiments.
# as §1
# Data from the nine independent depsipeptide hydrolysis reactions carried out with different concentrations of RNA duplex were simultaneously fit using SimFit to the reaction model shown in Fig. 5a. In the model, the free depsipeptide is subject to hydrolysis at a pseudo-first order rate governed by khyd-free. Binding of the depsipeptide to RNA according to an equilibrium determined by kassoc/kdissoc yields a depsipeptide-RNA complex, for which the pseudo-first order rate of ester hydrolysis is described by khyd-complex. During fitting, we fixed kassoc = 1 × 10^5 M^−1 s^−1, on the lower end of rates observed and expected for protein–RNA association. Therefore, three parameters were variable during the fitting, and the final rate constants determined by the fitting were: khyd-free = 1.1 × 10^−4 s^−1, khyd-complex = 3.2 × 10^−6 s^−1, and kdissoc = 8.3 × 10^−3 s^−1. […] Our model assumes a 1:1 stoichiometry for depsipeptide:RNA in the complex, and assumes the RNA is present only as a duplex (ignores steps involving RNA strand hybridization to form the duplex). The final RMS error of the fit was 5.4%. The output file obtained from the fitting is provided in the Supplementary Note.
# [3] = tested on: H26a RNA (5′-rArUrGrArGrUrArArCrCrGrUrArArGrGrUrGrArArArUrU-3′); experiment: RNA thermal denaturation (Tm) by UV hyperchromicity, H26a RNA hairpin; format: binding
# Protocol: Prior to Tm analyses, RNA samples were annealed in the appropriate buffer by heating to 75 °C and slowly cooling to room temperature. Depsipeptide/peptide was added to the annealed RNA and incubated at 4 °C for 20 min prior to carrying out the analysis. For analyses involving dry-down reaction mixtures, the Tm was determined by monitoring fluorescence increase upon melting of a fluorophore/quencher-labeled RNA duplex (5′-rCrGrArUrUrUrArGrCrG-/3IABkFQ/-3′ and 3′-rGrCrUrArArArUrCrGrC-FAM-5′) using a BioRad CFX Connect rtPCR instrument with a heating ramp of 1 °C/min and 20 μL final sample volumes. For analyses involving pure, synthetic compounds, the Tm of the RNA was determined by monitoring UV hyperchromicity at 260 nm using a Varian Cary Bio-100 spectrophotometer, with a heating ramp of 1 °C/min and 0.5- or 1-cm pathlength cells. The following RNA sequences were used: RNA duplex 1 = 5′-rCrGrCrUrArArArUrCrG-3′ and 5′-rCrGrArUrUrUrArGrCrG-3′; RNA duplex 2 = 5′-rArArArArUrUrUrArUrArUrUrArUrUrA-3′ and 5′-rUrArArUrArArUrArUrArArArUrUrUrU-3′; RNA duplex 3 = 5′-rArArCrGrUrArUrArCrGrUrU-3′ (palindromic); and H26a RNA = 5′-rArUrGrArGrUrArArCrCrGrUrArArGrGrUrGrArArArUrU-3′. RNA was present in each assay at a final concentration of 2.5 μM of the folded structure (2.5 μM each strand for duplex 1 and duplex 2, 5.0 μM palindromic strand for duplex 3, 2.5 μM strand for H26a RNA). Tm values were determined by nonlinear fitting of the melting curves using GraphPad Prism 8.2.1 for duplex 1 and H26a, or by finding the maximum of the first derivative of the curve using the Varian Cary Bio-100 software for duplex 2 and duplex 3. Both methods of determining the Tm gave similar values for a given denaturation curve.
# [4] = SimFit results output file, final NEWTON values
substance,measurement,setting,value
Aba-Gly-Ala-Dab-Lys-Ala-Dab-Lys-lac-Dab-Lys-Ala-Dab-Lys-NH2 [compound 9],increase of depsipeptide lifetime by single-stranded RNA,[1],roughly fivefold
same,level of intact depsipeptide with RNA vs depsipeptide alone,"[2]; 25 μM depsipeptide ± RNA duplex 1 (25 μM each strand), 37 °C, 12 h, HPLC",substantially higher levels
same,increase of observed depsipeptide lifetime by RNA duplex,"[2]; 25 μM depsipeptide, RNA duplex 1, 37 °C, pH 7.3 buffer, HPLC",~ 30 fold
same,kdissoc (depsipeptide–RNA complex),"[2]; SimFit fit of hydrolysis data with kassoc fixed at 1 × 10^5 M^−1 s^−1, 37 °C, pH 7.3",0.0083 s⁻¹
same,k2 (SimFit output; kdissoc),[2]; [4],8.2871E-3
same,k3 (SimFit output; khyd-complex),[2]; [4],3.1996E-6
same,k1 (SimFit output; khyd-free),"[2]; SimFit results output file, final NEWTON values, R.M.S. 5.4087 %",1.0596E-4
same,Kd,"[2]; from fixed kassoc and calculated kdissoc, read-out: predicted dissociation constant of the depsipeptide-RNA complex",100 nM
same,fold by which khyd-complex is lower than khyd-free,[2]; ratio of fitted rate constants,~ 34 fold
same,H26a RNA Tm,"[3]; observed Tm with peptide/depsipeptide 100 µM, pH 7.0, RNA alone 53.4 ± 0.5, mean ± SD of 2-4 independent experiments",64.9 ± 0.7 °C
same,H26a RNA ΔTm,"[3]; peptide/depsipeptide 100 μM, RNA 2.5 μM strand, pH 7.0, 10 mM phosphate, 100 mM NaCl, mean of 2–4 replicates",11.5 °C
